Assay results published in patent US20230146675A1, “PYRIMIDO[5,4-d]PYRIMIDINE DERIVATIVES AS ENT INHIBITORS FOR THE TREATMENT OF CANCERS, AND COMBINATION THEREOF WITH ADENOSINE RECEPTOR ANTAGONISTS” (ITEOS BELGIUM SA, priority 2020, published 2023).

Target: T1, human ENT1 (Homo sapiens, UniProt Q99808)
T1 sequence (Q99808 1-456): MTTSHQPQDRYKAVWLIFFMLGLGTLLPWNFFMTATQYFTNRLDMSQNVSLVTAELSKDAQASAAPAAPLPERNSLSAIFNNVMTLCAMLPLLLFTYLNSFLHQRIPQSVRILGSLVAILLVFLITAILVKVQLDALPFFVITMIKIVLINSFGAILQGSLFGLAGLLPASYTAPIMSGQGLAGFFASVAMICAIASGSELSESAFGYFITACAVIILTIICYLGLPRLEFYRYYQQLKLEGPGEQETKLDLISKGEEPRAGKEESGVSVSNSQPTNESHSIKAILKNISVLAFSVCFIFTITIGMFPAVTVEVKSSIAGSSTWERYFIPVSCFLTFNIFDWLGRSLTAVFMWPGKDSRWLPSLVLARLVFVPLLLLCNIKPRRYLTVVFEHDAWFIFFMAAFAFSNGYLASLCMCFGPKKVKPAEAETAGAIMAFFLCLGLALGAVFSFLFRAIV
Experiment: ENT1 binding assay (competition with Sahenta-DY647 on JAR cells)
Set-up: JAR cells expressing ENT1 were bought from ATCC; host or cells: JAR cells
Details: binned IC50
Outline: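 JAR cells were incubated with test compounds and the fluorescent ligand Sahenta-DY647 in competition. Plates were washed twice by centrifugation (4 min, 400 rcf, 4 °C). Binding potency was derived from the final fluorescence.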

| SMILES | IC50 [nM] |
| --- | --- |
| COCCN(CCOC)c1nc(N2CCC(OC)CC2)c2nc(OCc3ccc(C)nc3)nc(N3CCC(OC)CC3)c2n1 [Compound 263, N,N-bis(2-methoxyethyl)-4,8-bis(4-methoxypiperidin-1-yl)-6-((6-methylpyridin-3-yl)methoxy)pyrimido[5,4-d]pyrimidin-2-amine] | 100 to 500 |
| COCCN(CCOC)c1nc(N2CC(O)(C(F)(F)F)C2)c2nc(N(CCOC)CCOC)nc(N3CC(O)(C(F)(F)F)C3)c2n1 [Compound 11, 1,1′-(2,6-bis(bis(2-methoxyethyl)amino)pyrimido[5,4-d]pyrimidine-4,8-diyl)bis(3-(trifluoromethyl)azetidin-3-ol)] | < 100 |
| COCCN(CCOC)c1nc(N2CCC(OC)CC2)c2nc(N(CCO)CCO)nc(N3CC(=O)N4CCCC4C3)c2n1 (stereo not shown) [Compound 313, 2-(2-(bis(2-hydroxyethyl)amino)-6-(bis(2-methoxyethyl)amino)-8-(4-methoxypiperidin-1-yl)pyrimido[5,4-d]pyrimidin-4-yl)hexahydropyrrolo[1,2-a]pyrazin-4(1H)-one] | 100 to 500 |
| COCCN(CCOC)c1nc(N2CCC(OC)CC2)c2nc(N(CCOC)CCOC)nc(N3CCOCC3)c2n1 [Compound 69, N2,N2,N6,N6-tetrakis(2-methoxyethyl)-4-(4-methoxypiperidin-1-yl)-8-morpholinopyrimido[5,4-d]pyrimidine-2,6-diamine] | 500 to 1000 |
| COCCN(CCOC)c1nc(N2CCN(C)C(=O)C2)c2nc(N(CCOC)Cc3ccc(OC)c(OC)c3OC)nc(N3CCC(OC)CC3)c2n1 [Compound 303, 4-(2-(bis(2-methoxyethyl)amino)-6-((2-methoxyethyl)(2,3,4-trimethoxybenzyl)amino)-8-(4-methoxypiperidin-1-yl)pyrimido[5,4-d]pyrimidin-4-yl)-1-methylpiperazin-2-one] | < 100 |
| COCCN(CCOC)c1nc(N2CCC(OC)CC2)c2nc(N(CCOC)CCOCCN3C(=O)c4ccccc4C3=O)nc(N3CCC(OC)CC3)c2n1 [Compound 172, 2-(2-(2-((6-(bis(2-methoxyethyl)amino)-4,8-bis(4-methoxypiperidin-1-yl)pyrimido[5,4-d]pyrimidin-2-yl)(2-methoxyethyl)amino)ethoxy)ethyl)isoindoline-1,3-dione] | 100 to 500 |
| COCCN(CCOC)c1nc(N2CCC(OC)CC2)c2nc(N3CCn4ccnc4C3)nc(N3CCN(C)C(=O)C3)c2n1 [Compound 295, 4-(6-(bis(2-methoxyethyl)amino)-2-(5,6-dihydroimidazo[1,2-a]pyrazin-7(8H)-yl)-8-(4-methoxypiperidin-1-yl)pyrimido[5,4-d]pyrimidin-4-yl)-1-methylpiperazin-2-one] | 100 to 500 |
| COCCN(CCC(=O)NS(=O)(=O)N(C)C)c1nc(N2CCN(C)C(=O)C2)c2nc(N(CCOC)CCOC)nc(N3CCC(OC)CC3)c2n1 [Compound 334, 3-((6-(bis(2-methoxyethyl)amino)-8-(4-methoxypiperidin-1-yl)-4-(4-methyl-3-oxopiperazin-1-yl)pyrimido[5,4-d]pyrimidin-2-yl)(2-methoxyethyl)amino)-N-(N,N-dimethylsulfamoyl)propanamide] | 500 to 1000 |
| COCCN(CCOC)c1nc(N2CCN(C)C(=O)C2)c2nc(N(CCO)CCO)nc(N3CCC(OC)CC3)c2n1 [Compound 271, 4-(6-(bis(2-hydroxyethyl)amino)-2-(bis(2-methoxyethyl)amino)-8-(4-methoxypiperidin-1-yl)pyrimido[5,4-d]pyrimidin-4-yl)-1-methylpiperazin-2-one] | 500 to 1000 |
| COCCN(CCOC)c1nc(N2CCC(OC)CC2)c2nc(N(CCOC)CCOCCN3CCOCC3)nc(N3CCC(OC)CC3)c2n1 [Compound 45, N2,N2,N6-tris(2-methoxyethyl)-4,8-bis(4-methoxypiperidin-1-yl)-N6-(2-(2-morpholinoethoxy)ethyl)pyrimido[5,4-d]pyrimidine-2,6-diamine] | 100 to 500 |
| COCCN(CCOC)c1nc(N2CCC(F)(F)C2)c2nc(N(CCOC)CCOC)nc(N3CCC(OC)CC3)c2n1 [Compound 109, 4-(3,3-difluoropyrrolidin-1-yl)-N2,N2,N6,N6-tetrakis(2-methoxyethyl)-8-(4-methoxypiperidin-1-yl)pyrimido[5,4-d]pyrimidine-2,6-diamine] | 100 to 500 |
| COCCN(CCOC)c1nc(N2CCN(c3nccs3)CC2)c2nc(N(CCOC)CCOC)nc(N3CCN(c4nccs4)CC3)c2n1 [Compound 1, N2,N2,N6,N6-tetrakis(2-methoxyethyl)-4,8-bis(4-(thiazol-2-yl)piperazin-1-yl)pyrimido[5,4-d]pyrimidine-2,6-diamine] | < 100 |
| COCCN(CCOC)c1nc(N2CCC(F)(F)CC2)c2nc(N(CCO)CCO)nc(N3CCC(F)(F)CC3)c2n1 [Compound 19, 2,2′-((6-(bis(2-methoxyethyl)amino)-4,8-bis(4,4-difluoropiperidin-1-yl)pyrimido[5,4-d]pyrimidin-2-yl)azanediyl)diethanol] | 100 to 500 |
| COCCN(CCOC)c1nc(N2CCC(OC)CC2)c2nc(N(CCOC)CCOC)nc(N3CCC(NC(C)=O)CC3)c2n1 [Compound 88, N-(1-(2,6-bis(bis(2-methoxyethyl)amino)-8-(4-methoxypiperidin-1-yl)pyrimido[5,4-d]pyrimidin-4-yl)piperidin-4-yl)acetamide] | 500 to 1000 |
| COCCN(CCOC)c1nc(N2CC(=O)N(C)C(C)(C)C2)c2nc(N(CCO)CCO)nc(N3CCC(OC)CC3)c2n1 [Compound 312, 4-(6-(bis(2-hydroxyethyl)amino)-2-(bis(2-methoxyethyl)amino)-8-(4-methoxypiperidin-1-yl)pyrimido[5,4-d]pyrimidin-4-yl)-1,6,6-trimethylpiperazin-2-one] | 100 to 500 |
| COCCN(CCOC)c1nc(N2CCN(C)C(=O)C2)c2nc(N3CCN(C(C)=O)CC3)nc(N3CCC(OC)CC3)c2n1 [Compound 281, 4-(6-(4-acetylpiperazin-1-yl)-2-(bis(2-methoxyethyl)amino)-8-(4-methoxypiperidin-1-yl)pyrimido[5,4-d]pyrimidin-4-yl)-1-methylpiperazin-2-one] | 500 to 1000 |

Next, values leading:

| IC50 [nM] | SMILES |
| --- | --- |
| < 100 | COCCN(CCOC)c1nc(N2CCN(C)C(=O)C2)c2nc(N(CCOC)CCOC)nc(NCc3cccc(OC)c3)c2n1 [Compound 209, 4-(2,6-bis(bis(2-methoxyethyl)amino)-8-((3-methoxybenzyl)amino)pyrimido[5,4-d]pyrimidin-4-yl)-1-methylpiperazin-2-one] |
| 100 to 500 | COCCN(CCOC)c1nc(N2CCN(c3ncn(C)n3)CC2)c2nc(N(CCOC)CCOC)nc(N(C)Cc3ccc(F)c(F)c3)c2n1 [Compound 247, N4-(3,4-difluorobenzyl)-N2,N2,N6,N6-tetrakis(2-methoxyethyl)-N4-methyl-8-(4-(1-methyl-1H-1,2,4-triazol-3-yl)piperazin-1-yl)pyrimido[5,4-d]pyrimidine-2,4,6-triamine] |
| < 100 | COCCN(CCOC)c1nc(N2CCC(OC)CC2)c2nc(N(CCOC)CCOC)nc(NCc3cccc(OC(F)(F)F)c3)c2n1 [Compound 143, N2,N2,N6,N6-tetrakis(2-methoxyethyl)-8-(4-methoxypiperidin-1-yl)-N4-(3-(trifluoromethoxy)benzyl)pyrimido[5,4-d]pyrimidine-2,4,6-triamine] |
| 500 to 1000 | CCOCCCNc1nc(N(CCOC)CCOC)nc2c(N3CCC(OC)CC3)nc(N(CCOC)CCOC)nc12 [Compound 52, N4-(3-ethoxypropyl)-N2,N2,N6,N6-tetrakis(2-methoxyethyl)-8-(4-methoxypiperidin-1-yl)pyrimido[5,4-d]pyrimidine-2,4,6-triamine] |
| 500 to 1000 | COCCN(CCOC)c1nc(N2CCC(OC)CC2)c2nc(N(CCOC)CCOC)nc(NCc3cnc(Cl)s3)c2n1 [Compound 160, N4-((2-chlorothiazol-5-yl)methyl)-N2,N2,N6,N6-tetrakis(2-methoxyethyl)-8-(4-methoxypiperidin-1-yl)pyrimido[5,4-d]pyrimidine-2,4,6-triamine] |
| 100 to 500 | COCCN(CCOC)c1nc(N2CCC(OC)CC2)c2nc(N(CCOC)CCOC)nc(NCCc3ccncc3)c2n1 [Compound 64, N2,N2,N6,N6-tetrakis(2-methoxyethyl)-8-(4-methoxypiperidin-1-yl)-N4-(2-(pyridin-4-yl)ethyl)pyrimido[5,4-d]pyrimidine-2,4,6-triamine] |
| 100 to 500 | CCN1CCN(c2nc(N(CCOC)CCOC)nc3c(N4CCC(OC)CC4)nc(N(CCOC)CCOC)nc23)CC1=O [Compound 198, 4-(2,6-bis(bis(2-methoxyethyl)amino)-8-(4-methoxypiperidin-1-yl)pyrimido[5,4-d]pyrimidin-4-yl)-1-ethylpiperazin-2-one] |
| 100 to 500 | COCCN(CCOC)c1nc(N2CCN(c3ncn(C)n3)CC2)c2nc(N(CCOC)CCOC)nc(NCc3cccc(S(C)(=O)=O)c3)c2n1 [Compound 226, N2,N2,N6,N6-tetrakis(2-methoxyethyl)-8-(4-(1-methyl-1H-1,2,4-triazol-3-yl)piperazin-1-yl)-N4-(3-(methylsulfonyl)benzyl)pyrimido[5,4-d]pyrimidine-2,4,6-triamine] |
| < 100 | COCCN(CCOC)c1nc(N2CCC(OC)CC2)c2nc(N(CCOC)CCOC)nc(OCc3ccc(F)c(OC)c3)c2n1 [Compound 157, 4-((4-fluoro-3-methoxybenzyl)oxy)-N2,N2,N6,N6-tetrakis(2-methoxyethyl)-8-(4-methoxypiperidin-1-yl)pyrimido[5,4-d]pyrimidine-2,6-diamine] |
